Patent publication US11382918B2, “Methods for treating Huntington's Disease” (PTC Therapeutics, Inc., priority 2017, dated 2022)
Where a name gives a salt, the structure may show the parent alone.

Test system: Endogenous Huntingtin Protein (HTT)
Assay: Endogenous Huntingtin Protein Assay (ELISA-based MSD electrochemiluminescence)
Format: cell-based
Settings: Table 1
Outline: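 MSD electrochemiluminescence sandwich ELISA for endogenous HTT: sample lysates captured overnight at 4 °C on MW1 (expanded polyglutamine) or MAB2166 antibody. Detection used rabbit monoclonal #5656S, then goat anti-rabbit SULFO-TAG antibody, each 1 h at room temperature.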

Structure (SMILES)	IC50 [nM]
O=c1cc(-c2cncc(Cl)c2)nc2ccc(N3CCNCC3)cn12 [compound 94, 2-(5-chloropyridin-3-yl)-7-(piperazin-1-yl)-4H-pyrido[1,2-a]pyrimidin-4-one]	3000 to 33000
Cc1cn2nc(-c3cc(=O)n4cc(N5CCC(C)(N)CC5)ccc4n3)cc2c(C)n1 [compound 584, 7-(4-amino-4-methylpiperidin-1-yl)-2-(4,6-dimethylpyrazolo[1,5-a]pyrazin-2-yl)-4H-pyrido[1,2-a]pyrimidin-4-one]	3000 to 33000
Cc1cc2cc(-c3cc(=O)n4cc(N5CCN(C)CC5)ccc4n3)oc2c(C)n1 [compound 487, 2-(5,7-dimethylfuro[2,3-c]pyridin-2-yl)-7-(4-methylpiperazin-1-yl)-4H-pyrido[1,2-a]pyrimidin-4-one]	500 to 1000
Cc1cn2nc(-c3cc(=O)n4cc(N(C)C5CC(C)(C)NC(C)(C)C5)cc(C)c4n3)cc2c(C)n1 [compound 852, 2-(4,6-dimethylpyrazolo[1,5-a]pyrazin-2-yl)-9-methyl-7-[methyl(2,2,6,6-tetramethylpiperidin-4-yl)amino]-4H-pyrido[1,2-a]pyrimidin-4-one]	3000 to 33000
C[C@H]1CN(c2ccc3nc(-c4ccc5nn(C)cc5c4)cc(=O)n3c2)CCN1 [compound 138, 2-(2-methyl-2H-indazol-5-yl)-7-[(3S)-3-methylpiperazin-1-yl]-4H-pyrido[1,2-a]pyrimidin-4-one]	1000 to 3000
CCN1CC=C(c2ccc3nc(-c4ccc5c(cnn5C)c4)cc(=O)n3c2)CC1 [compound 463, 7-(1-ethyl-1,2,3,6-tetrahydropyridin-4-yl)-2-(1-methyl-1H-indazol-5-yl)-4H-pyrido[1,2-a]pyrimidin-4-one]	3000 to 33000
Cc1cn2cc(-c3cc(=O)n4cc(C5CCN(CCO)CC5)ncc4n3)cc(Cl)c2n1 [compound 599, 2-(8-chloro-2-methylimidazo[1,2-a]pyridin-6-yl)-7-[1-(2-hydroxyethyl)piperidin-4-yl]-4H-pyrazino[1,2-a]pyrimidin-4-one]	1000 to 3000
CCN1CC=C(c2cn3c(=O)cc(-c4ccc5c(cnn5C)c4)nc3cn2)CC1 [compound 507, 7-(1-ethyl-1,2,3,6-tetrahydropyridin-4-yl)-2-(1-methyl-1H-indazol-5-yl)-4H-pyrazino[1,2-a]pyrimidin-4-one]	3000 to 33000
Cc1nc2ccc(-c3cc(=O)n4cc(C5=CCN(C)CC5)ncc4n3)cc2o1 [compound 422, 2-(2-methyl-1,3-benzoxazol-6-yl)-7-(1-methyl-1,2,3,6-tetrahydropyridin-4-yl)-4H-pyrazino[1,2-a]pyrimidin-4-one]	100 to 500
CCc1nc(C)cn2nc(-c3cc(=O)n4cc(C5CCNCC5)ncc4n3)cc12 [compound 653, 2-(4-ethyl-6-methylpyrazolo[1,5-a]pyrazin-2-yl)-7-(piperidin-4-yl)-4H-pyrazino[1,2-a]pyrimidin-4-one]	< 100
Cc1cn2cc(-c3cc(=O)n4cc(N5CCN(C)CC5)ccc4n3)cc(C)c2n1 [compound 868, 2-(2,8-dimethylimidazo[1,2-a]pyridin-6-yl)-7-(4-methylpiperazin-1-yl)-4H-pyrido[1,2-a]pyrimidin-4-one]	1000 to 3000
Cc1nc(C2=CCNCC2)cn2c(=O)cc(-c3ccc4nn(C)cc4c3)nc12 [compound 791, 9-methyl-2-(2-methyl-2H-indazol-5-yl)-7-(1,2,3,6-tetrahydropyridin-4-yl)-4H-pyrazino[1,2-a]pyrimidin-4-one]	< 100
Cc1cn2nc(-c3cc(=O)n4cc(N5CCNCC5)ccc4n3)cc2cn1 [compound 420, 2-(6-methylpyrazolo[1,5-a]pyrazin-2-yl)-7-(piperazin-1-yl)-4H-pyrido[1,2-a]pyrimidin-4-one]	1000 to 3000
COc1cc(-c2ccnc(O)c2)ccc1-c1cc(=O)n2cc(C3=CCNCC3)ccc2n1 [compound 849, 2-[4-(2-hydroxypyridin-4-yl)-2-methoxyphenyl]-7-(1,2,3,6-tetrahydropyridin-4-yl)-4H-pyrido[1,2-a]pyrimidin-4-one hydrochloride (1:1)]	3000 to 33000
Cc1cn2cc(-c3cc(=O)n4cc(C5CCNCC5)ccc4n3)cc(Cl)c2n1 [compound 516, 2-(8-chloro-2-methylimidazo[1,2-a]pyridin-6-yl)-7-(piperidin-4-yl)-4H-pyrido[1,2-a]pyrimidin-4-one]	< 100
CN1CC=C(c2cn3c(=O)cc(-c4ccc5c(cnn5C)c4)nc3cn2)CC1 [compound 506, 2-(1-methyl-1H-indazol-5-yl)-7-(1-methyl-1,2,3,6-tetrahydropyridin-4-yl)-4H-pyrazino[1,2-a]pyrimidin-4-one]	3000 to 33000
Cc1cn2cc(-c3cc(=O)n4cc(N5CCN6CCC[C@@H]6C5)ccc4n3)cc(F)c2n1 [compound 272, 2-(8-fluoro-2-methylimidazo[1,2-a]pyridin-6-yl)-7-[(8aR)-hexahydropyrrolo[1,2-a]pyrazin-2(1H)-yl]-4H-pyrido[1,2-a]pyrimidin-4-one]	500 to 1000
Cn1ncc2cc(-c3cc(=O)n4cc(C5=CCNCC5)ncc4n3)ccc21 [compound 505, 2-(1-methyl-1H-indazol-5-yl)-7-(1,2,3,6-tetrahydropyridin-4-yl)-4H-pyrazino[1,2-a]pyrimidin-4-one]	3000 to 33000

Structure (SMILES)	IC50 [nM]
Cc1cc(C2CCN(C3CCC3)CC2)cn2c(=O)cc(-c3ccc4nn(C)cc4c3)nc12 [compound 710, 7-(1-cyclobutylpiperidin-4-yl)-9-methyl-2-(2-methyl-2H-indazol-5-yl)-4H-pyrido[1,2-a]pyrimidin-4-one]	100 to 500
CCc1cc(-c2cc(=O)n3cc(N4CCN(CCO)[C@H](C)C4)ccc3n2)cn2cc(C)nc12 [compound 649, 2-(8-ethyl-2-methylimidazo[1,2-a]pyridin-6-yl)-7-[(3R)-4-(2-hydroxyethyl)-3-methylpiperazin-1-yl]-4H-pyrido[1,2-a]pyrimidin-4-one]	500 to 1000
CN1CC=C(c2ccc3nc(-c4ccc5nn(C)cc5c4)cc(=O)n3c2)CC1 [compound 476, 2-(2-methyl-2H-indazol-5-yl)-7-(1-methyl-1,2,3,6-tetrahydropyridin-4-yl)-4H-pyrido[1,2-a]pyrimidin-4-one]	3000 to 33000
Cc1csc(-c2cc(=O)n3cc(N4CCNCC4)ccc3n2)n1 [compound 163, 2-(4-methyl-1,3-thiazol-2-yl)-7-(piperazin-1-yl)-4H-pyrido[1,2-a]pyrimidin-4-one]	3000 to 33000
Cn1cc2cc(-c3cc(=O)n4cc(C5CCNCC5)ncc4n3)ccc2n1 [compound 566, 2-(2-methyl-2H-indazol-5-yl)-7-(piperidin-4-yl)-4H-pyrazino[1,2-a]pyrimidin-4-one]	100 to 500
Cc1nc2ccc(-c3cc(=O)n4cc(N5CCNCC5)ccc4n3)cn2c1C [compound 125, 2-(2,3-dimethylimidazo[1,2-a]pyridin-6-yl)-7-(piperazin-1-yl)-4H-pyrido[1,2-a]pyrimidin-4-one]	3000 to 33000
C[C@@H]1CN(c2ccc3nc(-c4ccc5c(cnn5C)c4)cc(=O)n3c2)CCN1 [compound 545, 2-(1-methyl-1H-indazol-5-yl)-7-[(3R)-3-methylpiperazin-1-yl]-4H-pyrido[1,2-a]pyrimidin-4-one]	3000 to 33000
CCc1nc(C)cn2nc(-c3cc(=O)n4cc(C5CCN(C(C)C)CC5)ccc4n3)cc12 [compound 679, 2-(4-ethyl-6-methylpyrazolo[1,5-a]pyrazin-2-yl)-7-[1-(propan-2-yl)piperidin-4-yl]-4H-pyrido[1,2-a]pyrimidin-4-one]	3000 to 33000
Cc1cn2cc(-c3ccc4nc(N5CCNCC5)cc(=O)n4c3)cc(F)c2n1 [compound 268, 7-(8-fluoro-2-methylimidazo[1,2-a]pyridin-6-yl)-2-(piperazin-1-yl)-4H-pyrido[1,2-a]pyrimidin-4-one]	3000 to 33000
COc1ccc(-c2cc(=O)n3cc(N4CCNCC4)ccc3n2)cn1 [compound 88, 2-(6-methoxypyridin-3-yl)-7-(piperazin-1-yl)-4H-pyrido[1,2-a]pyrimidin-4-one]	3000 to 33000
CCN1CCC(c2cn3c(=O)cc(-c4ccc5nn(C)cc5c4)nc3c(C)n2)CC1 [compound 864, 7-(1-ethylpiperidin-4-yl)-9-methyl-2-(2-methyl-2H-indazol-5-yl)-4H-pyrazino[1,2-a]pyrimidin-4-one]	< 100
Cc1cc(-c2cc(=O)n3cc(N4CCN(C)[C@@H](C)C4)ccc3n2)cc2cn(C)nc12 [compound 751, 2-(2,7-dimethyl-2H-indazol-5-yl)-7-[(3S)-3,4-dimethylpiperazin-1-yl]-4H-pyrido[1,2-a]pyrimidin-4-one]	3000 to 33000
Cn1cc2cc(-c3cc(=O)n4cc(C5CCN(CCO)CC5)ccc4n3)ccc2n1 [compound 613, 7-[1-(2-hydroxyethyl)piperidin-4-yl]-2-(2-methyl-2H-indazol-5-yl)-4H-pyrido[1,2-a]pyrimidin-4-one]	1000 to 3000
Cc1cn2cc(-c3cc(=O)n4cc(N5CCNCC5)ccc4n3)cc(F)c2n1 [compound 209, 2-(8-fluoro-2-methylimidazo[1,2-a]pyridin-6-yl)-7-(piperazin-1-yl)-4H-pyrido[1,2-a]pyrimidin-4-one]	100 to 500
Cc1nc2cc(-c3cc(=O)n4cc(N5CCNCC5)ccc4n3)ccc2s1 [compound 136, 2-(2-methyl-1,3-benzothiazol-5-yl)-7-(piperazin-1-yl)-4H-pyrido[1,2-a]pyrimidin-4-one]	3000 to 33000
Cc1cn2ccc(-c3cc(=O)n4cc(C5CCNCC5)ccc4n3)cc2n1 [compound 556, 2-(2-methylimidazo[1,2-a]pyridin-7-yl)-7-(piperidin-4-yl)-4H-pyrido[1,2-a]pyrimidin-4-one]	3000 to 33000
CCN1CCN(c2cn3c(=O)cc(-c4ccc5nn(C)cc5c4)nc3cn2)CC1 [compound 590, 7-(4-ethylpiperazin-1-yl)-2-(2-methyl-2H-indazol-5-yl)-4H-pyrazino[1,2-a]pyrimidin-4-one]	3000 to 33000
Cc1cn2cc(-c3cc(=O)n4cc(N5CCNCC5)ccc4n3)cc(C)c2n1 [compound 141, 2-(2,8-dimethylimidazo[1,2-a]pyridin-6-yl)-7-(piperazin-1-yl)-4H-pyrido[1,2-a]pyrimidin-4-one]	1000 to 3000
